Here are results for six compounds from patent publication US20080195322A1, “Quantification of the Effects of Perturbations on Biological Samples” (The Board of Regents of the University of Texas System, priority 2007, published 2008).

The experiment deals with HeLa cells. In words: High-throughput image-based multivariate phenotypic profiling (d-profiles) of the 100-compound compendium by fluorescence microscopy. Format: cell-based, human. Particulars: for compound closest to first d-profile / compound closest to second d-profile: compounds with multiple d-profiles. How it is done: To illustrate the performance of the present multivariate approach, the disclosed methods were applied to a compendium of fluorescence microscopy images in which HeLa cells were treated with 100 compounds, dissolved in dimethyl sulfoxide (DMSO), over 13 threefold titrations as shown in FIGS. 5A and 5B. The compounds represented approximately 20 categories of activities as shown in the table of FIG. 6, selected to cover mechanisms of toxicity, signaling pathways, and therapeutic targets in cancer and other diseases. Compound effects were assayed in duplicate on 384-well plates, using four sets of multiplexed molecular markers (DNA-SC35-anillin; DNA-p53-cFos; DNA-p38-pERK; DNA-mirotubule-actin). On average, 2413±852 (mean±standard deviation) cells were captured per well, from 103,580 images per marker set, to yield a total of ˜37 million individual identified cells. Cells treated with DMSO alone were used as controls.
Although most of these features were derived from the measurements of individual markers, some features measured information from more than one marker (such as the spatial correlation between the intensities of two different markers).
Due to biological and experimental variability, the significance thresholds of classification accuracy at p=0.05 estimated on every plate were much higher than 50% (FIGS. 8A-D, lower panels, dashed lines), and occasionally could reach as high as 90%. Therefore, well-to-well variability, even within the control population, could be high and should not be ignored.
To simulate a drug screen for compounds of similar target to a known compound, a d-profile was selected to be the reference profile, while all other d-profiles from the compendium were used as blinded test profiles. Similarity scores between the reference profile and all other test profiles were computed and ranked. The test profiles that were most similar to the reference profile were selected as “drug candidates.”
For each reference profile, the performance in identifying test profiles was estimated with similar a target on each marker set by using prior target annotations as the “gold standard.” […] was used as the performance evaluation criterion (Methods). “On-target” effects were defined as d-profiles whose AUC values were significant (p<0.05), and all other d-profiles were defined as “off-target.” 73%, 40%, 67%, and 56% of the compounds with more than one d-profile and at least one on-target d-profile had at least one off-target d-profile on the DNA-SC35-anillin, DNA-p53-cFos, DNA-p38-pERK and DNA-MT-actin marker sets respectively. […] Thus, the present method can identify dose-dependent secondary or tertiary responses that were very different from the primary responses.
The compound category of a novel d-profile may be inferred by comparison to a collection of previously categorized reference d-profiles. […] Although all of these compounds are histone deacetylase inhibitors, oxamflatin, trichostatin, and scriptaid are hydroxamic acids having very different chemical structures than apicidin, a cyclic tetrapeptide. […] For a d-profile, an accurate prediction was made when its most similar d-profile was annotated to the same target category.

Where [1] appears, read: drug screening simulation against prior target annotations.

`COC(=O)Nc1nc2ccc(C(=O)c3cccs3)cc2[nH]1` [nocadazale, Nocodazole]: for the setting “category prediction”, the “d-profile similarity to the group of microtubule stabilizing compounds (taxol second d-profile, epothilone B, griseofulvin)” value was “further away”.
Take `NC(=O)NO` [hydroxy urea-2, hydroxy urea]: under “DNA-p53-cFos marker set”, the “most similar d-profiles (category prediction)” value was “most similar to aphidicolin and methotrexate”.
Oxamflatin: the “most similar d-profiles (category prediction)” value (DNA-p38-pERK marker set) was “most similar to trichostatin, scriptaid, and apicidin”.
On to `CC(=O)O[C@H]1C(=O)[C@@]2(C)[C@H]([C@H](OC(=O)c3ccccc3)[C@]3(O)C[C@H](OC(=O)[C@H](O)[C@@H](NC(=O)c4ccccc4)c4ccccc4)C(C)=C1C3(C)C)[C@]1(OC(C)=O)CO[C@@H]1C[C@@H]2O` [taxol, Taxol], for which, under “across all four marker sets, 13 threefold titrations”, the number of d-profiles is 2. Further, for the setting “category prediction”, the “compound closest to first d-profile” value is listed as “closest to sulindac sulfide”; the “compound closest to second d-profile” value is “closest to epothilone B and griseofulvin”.
Take `CC[C@@]1(O)C(=O)OCc2c1cc1n(c2=O)Cc2cc3ccccc3nc2-1` [Camptothecin]: under “category prediction”, the “compound closest to first d-profile” value is given as “closest to another topoisomerase inhibitor, etoposide” and the “compound closest to second d-profile” value is on record as “closest to a CDK inhibitor, alsterpullone”. For the same compound, under setting [1], the “off-target effects (d-profiles whose AUC not significant)” value was “one off-target effect” and the “on-target effects (d-profiles whose AUC values were significant, p<0.05)” value was “one on-target effect”.
Turning to `COc1cccc2c1C(=O)c1c(O)c3c(c(O)c1C2=O)C[C@@](O)(C(=O)CO)C[C@@H]3O[C@H]1C[C@H](N)[C@H](O)[C@H](C)O1` [doxorubixin], the “number of features needed to detect compound effects after recursive feature removal” value (in each of the four marker sets) is “only a single feature”.
